Assays:
WEHI-3 cells [1] = assay: NBT reduction (differentiation) in WEHI-3 cells; assay type: cell-based, murine; conditions: 24 h; for percentages of NBT positive cells: FIG. 3B
WEHI-3 cells [2] = assay: TUNEL/DAPI staining (apoptosis) in WEHI-3 cells; assay type: cell-based, murine; conditions: for TUNEL positive cells: 24 h, FIG. 3B; for nuclear shrinkage, chromatin condensation and DNA fragmentation (TUNEL/DAPI): 24 h culture, FIG. 3A
WEHI-3 leukemia cells = assay: Survival, organ and body weight, spleen histopathology of BALB/c mice bearing WEHI-3 leukemia cells; assay type: in vivo; conditions: for mean survival time of WEHI-3/BALB/c mice: 30 mg/kg/mouse i.p., untreated 30 days, text of b65; for Survival days Range / Survival days Mean ± S.D.: 30 mg/kg/mouse, QD*7 (once two days by seven times), 10 mice; for Survival days Range: untreated 20-30; for Survival days Mean ± S.D.: untreated 26.0 ± 3.9; for infiltration of immature myeloblastic cells into splenic red pulp: H-E stain of spleen section, FIG. 2; for body weight loss in leukemia mice: within one month of experiment, data not shown
Method: Murine myelomonocytic leukemia cell line WEHI-3 was obtained from the Food Industry Research and Development Institute (Hsinchu, Taiwan). […] This cell line can induce leukemia in syngenic BALB/c mice for evaluating anti-leukemia effects of drugs.
Specifically, BLAB/c mice were divided into 4 groups. Group I was injected i.p. with WEHI-3 only. […] Control mice and all groups of mice were treated for 2 weeks before the animals were weighed and the blood was draw and sacrificed for further experiments.
The spleen and liver tissues were isolated from individual animals, photographed, weighed, and histopathologically examined.

Hep3B cells = conditions: cited from earlier work
[3] = tested on: human hepatocellular carcinoma HA22T cells; conditions: cited from earlier work
A498 renal cancer cells = assay: A498 renal cancer xenograft tumor growth in athymic nude mice; assay type: in vivo; conditions: single agent; Compound 1 10 mg/kg/day oral in 0.5% CMC; paclitaxel or doxorubicin 20 mg/kg/week i.p.; nude mice with A498 tumors
Method: Athymic nude mice (BALB/c nu/nu female, 6-8 week old) were housed at 22° C. on a 12 h light/dark cycle. The mice were subcutaneously injected with A498 renal cancer cells (10^7 cell/mouse). After inoculation for 15 days, tumors were grown to a size of 100 to 150 mm^3. The mice were then randomly divided into six grounds (5 mice in each group). […] (paclitaxel and doxorubicin are commercial products). […] The tumors were carefully removed and weighed.

WEHI-3 cells [4] = assay: DNA fragmentation by agarose gel electrophoresis in WEHI-3 cells; conditions: compound 1 at 5 μM, 12 and 24 h; FIG. 4A
Method: (§1) The results were expressed as mean±S.D. and the difference between the groups was tested by one way ANOVA.

WEHI-3 cells [5] = assay: Cell cycle analysis of WEHI-3 cells in vitro; assay type: cell-based, murine; conditions: compound 1 5 μM, ATRA 1 μM, 24 h; data not shown
caspase-3 = assay: Caspase-3 activity assay in WEHI-3 cells; conditions: 12, 18 and 24 h treatment; 50 μM of compound 1; FIG. 4B
Method: as §1

platelet = conditions: cited from earlier work

SMILES | NBT-reduction compared with control cells (WEHI-3 cells [1]) | percentages of NBT positive cells (WEHI-3 cells [1]) [%] | TUNEL positive cells (WEHI-3 cells [2]) [%] | nuclear shrinkage, chromatin condensation and DNA fragmentation (TUNEL/DAPI) (WEHI-3 cells [2]) | mean survival time of WEHI-3/BALB/c mice (WEHI-3 leukemia cells) [days] | Survival days Range (WEHI-3 leukemia cells) [days] | Survival days Mean ± S.D. (WEHI-3 leukemia cells) [days] | infiltration of immature myeloblastic cells into splenic red pulp (WEHI-3 leukemia cells) | body weight loss in leukemia mice (WEHI-3 leukemia cells) | hypoxia induction of erythropoietin and vascular endothelial growth factor (Hep3B cells) | cell cycle arrest [3] | tumor size compared with control group (A498 renal cancer cells) | DNA fragmentation (agarose gel) (WEHI-3 cells [4]) | sub-G1 population (WEHI-3 cells [5]) | caspase-3 activity (caspase-3) | antiplatelet activity (platelet)
CC1=C(/C=C/C(C)=C/C=C/C(C)=C/C(=O)O)C(C)(C)CCC1 [ATRA, all trans retinoic acid, reference compound] | significant increases | 33.42 | 5.45 | not observed | 42 | 26 to 42 | 33.9 ± 5.0 | reduced | improved the body weight loss |  |  |  |  |  |  | 
OCc1ccc(-c2nn(Cc3ccccc3)c3ccccc23)o1 [Compound 1, 1-benzyl-3-(5′-hydroxymethyl-2′-furyl)indazole] |  | 3.56 | 40.33 | exhibited nuclear shrinkage, chromatin condensation and DNA fragmentation | 40 | 22 to 40 | 32.3 ± 4.9 | reduced | improved the body weight loss | inhibits hypoxia induction of erythropoietin and vascular endothelial growth factor | arresting cell cycles at the Go/G1 stage | smaller tumors than those in the control group | fragmented into a ladder of 180-200 base pairs | increased sub-GI population | rapid induction of caspase-3 activity | novel antiplatelet agent
COc1cccc2c1C(=O)c1c(O)c3c(c(O)c1C2=O)C[C@@](O)(C(=O)CO)C[C@@H]3O[C@H]1C[C@H](N)[C@H](O)[C@H](C)O1 [doxorubicin, Doxorubicin] |  |  |  |  |  |  |  |  |  |  |  | smaller tumors than those in the control group |  |  |  | 
CC(=O)O[C@H]1C(=O)[C@@]2(C)[C@H]([C@H](OC(=O)c3ccccc3)[C@]3(O)C[C@H](OC(=O)[C@H](O)[C@@H](NC(=O)c4ccccc4)c4ccccc4)C(C)=C1C3(C)C)[C@]1(OC(C)=O)CO[C@@H]1C[C@@H]2O [paclitaxel, Paclitaxel] |  |  |  |  |  |  |  |  |  |  |  | smaller tumors than those in the control group |  |  |  | 
